The source of these data is ChEMBL document CHEMBL1137944, “Imidazole derivatives as new potent and selective 20-HETE synthase inhibitors” (Bioorg Med Chem Lett, 2004).

Each structure is given as a SMILES string. Where only a bound is given, the exact number is not on record here.

Series [1] is described as follows: Distribution coefficient of compound was evaluated at pH 6.8. Particulars: octanol/water.
The next series concerns the target Cytochrome P450 2C9 (Homo sapiens, UniProt P11712). The series is described as follows: Inhibition of cytochrome P450 2C9.
For a further series, the target named is T1, Cytochrome P450 1A2 (Homo sapiens, UniProt P05177).
T1 sequence (P05177 whole entry): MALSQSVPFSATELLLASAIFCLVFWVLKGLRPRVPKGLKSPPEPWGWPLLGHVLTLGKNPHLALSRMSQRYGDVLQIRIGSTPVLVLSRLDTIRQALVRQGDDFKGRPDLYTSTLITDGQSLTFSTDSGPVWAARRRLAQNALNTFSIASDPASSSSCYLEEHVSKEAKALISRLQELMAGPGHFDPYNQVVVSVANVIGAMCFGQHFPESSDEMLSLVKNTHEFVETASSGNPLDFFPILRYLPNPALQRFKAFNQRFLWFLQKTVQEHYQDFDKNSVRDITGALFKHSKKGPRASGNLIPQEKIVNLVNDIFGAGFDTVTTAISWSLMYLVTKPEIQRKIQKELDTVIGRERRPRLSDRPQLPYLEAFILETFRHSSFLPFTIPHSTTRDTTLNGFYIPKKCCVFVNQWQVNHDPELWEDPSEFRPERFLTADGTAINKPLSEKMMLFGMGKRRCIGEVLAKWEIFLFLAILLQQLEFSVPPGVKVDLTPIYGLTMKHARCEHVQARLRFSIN
The series is described as follows: Inhibition of cytochrome P450 1A2.

A short description of series [2]: Inhibition of 20-HETE synthesis in human renal microsomes. Also noted: species or system Microsome.
The next series deals with Cytochrome P450 2D6 (Homo sapiens, UniProt P10635). Kind of series: Inhibition of cytochrome P450 2D6.
Chain of Cytochrome P450 2D6 (P10635 whole entry): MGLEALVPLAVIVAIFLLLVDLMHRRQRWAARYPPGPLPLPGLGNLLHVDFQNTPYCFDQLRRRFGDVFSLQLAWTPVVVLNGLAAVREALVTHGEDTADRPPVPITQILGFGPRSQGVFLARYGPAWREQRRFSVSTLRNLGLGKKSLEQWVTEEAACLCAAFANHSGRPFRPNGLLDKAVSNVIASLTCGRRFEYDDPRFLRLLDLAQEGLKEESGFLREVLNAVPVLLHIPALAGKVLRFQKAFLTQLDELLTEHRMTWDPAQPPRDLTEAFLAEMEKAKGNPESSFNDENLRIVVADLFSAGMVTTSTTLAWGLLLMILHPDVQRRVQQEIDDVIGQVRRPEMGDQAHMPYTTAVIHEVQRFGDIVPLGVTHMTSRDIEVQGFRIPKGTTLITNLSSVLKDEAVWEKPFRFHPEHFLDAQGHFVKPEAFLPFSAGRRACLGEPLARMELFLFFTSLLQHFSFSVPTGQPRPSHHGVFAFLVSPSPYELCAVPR
Another series has as its target Cytochrome P450 2C19 (Homo sapiens, UniProt P33261). The series is described as follows: Inhibition of cytochrome P450 2C19.
For another series, the target named is Cytochrome P450 3A4 (Homo sapiens, UniProt P08684). The series is described as follows: Inhibition of cytochrome P450 3A4.
Chain of Cytochrome P450 3A4 (P08684 whole entry): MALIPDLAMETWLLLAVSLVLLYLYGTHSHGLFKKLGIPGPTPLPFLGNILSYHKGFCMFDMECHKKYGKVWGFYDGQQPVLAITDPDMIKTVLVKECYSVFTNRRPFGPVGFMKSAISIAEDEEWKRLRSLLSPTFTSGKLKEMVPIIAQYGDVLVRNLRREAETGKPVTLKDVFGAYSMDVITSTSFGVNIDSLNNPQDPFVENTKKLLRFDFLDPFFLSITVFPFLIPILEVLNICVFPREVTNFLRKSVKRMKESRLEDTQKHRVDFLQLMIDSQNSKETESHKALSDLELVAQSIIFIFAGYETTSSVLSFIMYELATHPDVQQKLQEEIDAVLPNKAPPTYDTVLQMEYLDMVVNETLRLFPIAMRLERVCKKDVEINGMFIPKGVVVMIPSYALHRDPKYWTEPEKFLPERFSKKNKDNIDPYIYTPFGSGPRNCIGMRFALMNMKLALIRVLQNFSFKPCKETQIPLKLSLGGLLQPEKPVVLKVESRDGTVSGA

Chain of Cytochrome P450 2C9 (P11712 whole entry): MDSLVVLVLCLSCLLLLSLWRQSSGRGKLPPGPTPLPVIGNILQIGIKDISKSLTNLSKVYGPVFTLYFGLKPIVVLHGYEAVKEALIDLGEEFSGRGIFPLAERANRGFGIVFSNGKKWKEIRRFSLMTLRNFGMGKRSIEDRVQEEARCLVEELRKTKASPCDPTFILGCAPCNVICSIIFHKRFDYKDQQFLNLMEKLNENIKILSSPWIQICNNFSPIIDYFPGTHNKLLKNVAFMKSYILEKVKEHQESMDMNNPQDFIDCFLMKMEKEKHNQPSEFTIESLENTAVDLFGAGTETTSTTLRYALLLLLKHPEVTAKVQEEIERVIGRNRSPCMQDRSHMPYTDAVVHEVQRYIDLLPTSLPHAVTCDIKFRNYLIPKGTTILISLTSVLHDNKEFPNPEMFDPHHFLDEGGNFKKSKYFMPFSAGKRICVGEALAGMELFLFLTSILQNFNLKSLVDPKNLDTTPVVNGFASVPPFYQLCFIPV
Chain of Cytochrome P450 2C19 (P33261 whole entry): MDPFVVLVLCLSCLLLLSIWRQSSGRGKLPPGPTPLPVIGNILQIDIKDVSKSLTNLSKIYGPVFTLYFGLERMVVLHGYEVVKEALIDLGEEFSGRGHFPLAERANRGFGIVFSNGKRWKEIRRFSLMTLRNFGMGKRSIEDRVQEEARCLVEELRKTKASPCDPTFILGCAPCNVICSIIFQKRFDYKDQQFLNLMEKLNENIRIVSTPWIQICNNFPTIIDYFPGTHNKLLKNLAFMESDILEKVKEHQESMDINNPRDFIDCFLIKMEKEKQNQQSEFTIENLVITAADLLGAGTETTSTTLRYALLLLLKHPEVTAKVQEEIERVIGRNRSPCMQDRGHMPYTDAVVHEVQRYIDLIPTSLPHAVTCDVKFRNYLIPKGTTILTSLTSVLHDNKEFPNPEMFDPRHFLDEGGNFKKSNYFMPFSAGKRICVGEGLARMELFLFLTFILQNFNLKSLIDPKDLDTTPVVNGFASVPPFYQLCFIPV

With `c1ccc(COc2ccc(-n3ccnc3)cc2)nc1`, the logD in series [1] came out at 1.99. Also, the IC50 was 0.13 µM against Cytochrome P450 2C9; 0.12 µM at Cytochrome P450 1A2; 0.0045 µM in series [2]; 1.04 µM at Cytochrome P450 2D6; less than 0.046 µM on Cytochrome P450 2C19; 0.63 µM on Cytochrome P450 3A4.

In series [1], `c1cn(-c2ccc(OCCN3CCOCC3)cc2)cn1` returned a logD of 0.91. The IC50 at Cytochrome P450 2C9 came to 1.81 µM; against Cytochrome P450 1A2, 1.48 µM; in series [2], 0.0086 µM; against Cytochrome P450 2D6 it was 0.399 µM; at Cytochrome P450 2C19, 0.091 µM; on Cytochrome P450 3A4, 5.67 µM.

Turning to `c1cc(CCCOc2ccc(-n3ccnc3)cc2)ccn1`, the logD in series [1] turned out to be 2.81. The IC50 was 0.101 µM against Cytochrome P450 2C9; less than 0.046 µM against Cytochrome P450 1A2; 0.0011 µM in series [2]; 1.04 µM against Cytochrome P450 2D6; less than 0.046 µM against Cytochrome P450 2C19; 0.344 µM at Cytochrome P450 3A4.

In the case of `CN(C)CCCCCCOc1ccc(-n2ccnc2)cc1`, the pH-dependent lipophilicity (logD) in series [1] amounted to 0.51. Also, the IC50 against Cytochrome P450 1A2 turned out to be 0.8 µM; in series [2] it was 0.0022 µM; on Cytochrome P450 2D6, 0.41 µM; on Cytochrome P450 3A4, 4.46 µM.

In the case of `CN(C)CCCOc1ccc(-n2ccnc2)cc1`, in series [1], the logD is -0.41. Besides, the IC50 on Cytochrome P450 1A2 is 3.4 µM; in series [2], 0.051 µM; against Cytochrome P450 2D6, 0.4 µM; at Cytochrome P450 3A4 it was 39 µM.

`CCOC(=O)N1CCN(CCOc2ccc(-n3ccnc3)cc2)CC1` displayed a logD in series [1] of 2.27. In addition, the IC50 on Cytochrome P450 2C9 is 1.44 µM; on Cytochrome P450 1A2 it was 2.24 µM; in series [2], 0.016 µM; at Cytochrome P450 2D6, 3.2 µM; at Cytochrome P450 2C19 it was 0.469 µM; on Cytochrome P450 3A4 it was more than 100 µM.

`c1ccc(CCCOc2ccc(-n3ccnc3)cc2)nc1` had a logD in series [1] of 2.84. Further, the IC50 against Cytochrome P450 2C9 is 0.129 µM; on Cytochrome P450 1A2, less than 0.046 µM; in series [2], 0.0021 µM; against Cytochrome P450 2D6, 0.62 µM; against Cytochrome P450 2C19 it was less than 0.046 µM; on Cytochrome P450 3A4, 0.252 µM.

Turning to `c1cncc(CCCOc2ccc(-n3ccnc3)cc2)c1`, the logD in series [1] was 2.85. Further, the IC50 on Cytochrome P450 2C9 was 0.185 µM; against Cytochrome P450 1A2 it was less than 0.046 µM; in series [2] it was 0.0011 µM; against Cytochrome P450 2D6 it was 1.3 µM; against Cytochrome P450 2C19, less than 0.046 µM; at Cytochrome P450 3A4 it was 0.417 µM.

In the case of `CCCCc1ccc(/N=C/NO)c(C)c1`, in series [2], the IC50 was 0.0089 µM.

In series [2], `CCCCCCOc1ccc(-n2ccnc2)cn1` displayed an IC50 of 0.0077 µM.

Compound `CN(C)CCOc1ccc(-n2ccnc2)cc1` displayed a logD in series [1] of -0.08. Moreover, the IC50 at Cytochrome P450 1A2 is 15 µM; in series [2], 0.387 µM; on Cytochrome P450 2D6 it was 1.05 µM; at Cytochrome P450 3A4, more than 100 µM.
